Patent US12376590B2, “Compositions comprising pyridine carboxylate herbicides and azole carboxylate safeners” (Corteva Agriscience LLC, priority 2018, dated 2025)

What was measured:
Assay in all cases: Greenhouse postemergence herbicidal safening trial, visual injury after 20-22 d
Settings in all cases: applied alone
spring wheat (TRZAS) = format: in vivo, Triticum aestivum
Text: (§1) Greenhouse Trial Methodology—Evaluation of Postemergence Herbicidal Safening in Crops
(§2) Seeds of the desired test plant species were planted in a 90:10% v/v (volume/volume) mixture of PRO-MIX® BX (Premier Tech Horticulture, Quakertown, PA, USA) and PROFILE® GREENS GRADE™ (Profile Products LLC, Buffalo Grove, IL, USA) planting mixture, which typically has a pH of 5.2 to 6.2 and an organic matter content of at least 50 percent, in plastic pots with a surface area of 103.2 square centimeters (cm^2). When required to ensure good germination and healthy plants, a fungicide treatment and/or other chemical or physical treatment was applied. The plants were grown for 7-36 days (d) in a greenhouse with an approximate 14-hour (h) photo-period which was maintained at about 23° C. during the day and 22° C. during the night. Nutrients and water were added on a regular basis and supplemental lighting was provided with overhead metal halide 1000-Watt lamps as necessary. The plants were employed for testing when they reached the second or third true leaf stage.
(§3) Emulsifiable concentrates of each of each pyridine carboxylate herbicide (Compound A or Compound B) were prepared at 100 grams acid equivalent per liter (g ae/L). An aliquot of each emulsifiable concentrate was placed in a 25 mL glass vial and diluted with an aqueous mixture of 1.25% (v/v) ACTIROB® B esterified rapeseed oil (Bayer Crop Science, Research Triangle Park, NC, USA) or MSO® Concentrate with LECI-TECH® methylated soybean oil (Loveland Products, Loveland, CO, USA) to obtain concentrated stock solutions at the highest application rate for each herbicide, based upon a 12 milliliter (mL) application volume at a rate of 187 liters per hectare (L/ha). The concentrated stock solutions were further diluted with an aqueous mixture of 1.25% v/v ACTIROB® B or MSO® Concentrate with LECI-TECH® to obtain stock solutions at reduced application rates for each herbicide. Spray solutions of the herbicide combinations (Compound A or Compound B plus safener) were prepared by adding weighed amounts or aliquots of the azole carboxylate safener to the stock solutions of Compound A or Compound B to form 12-mL spray solutions in two-way combinations.
(§4) The spray solutions were applied to the plant material with an overhead Mandel track sprayer equipped with 8002E nozzles calibrated to deliver 187 L/ha over an application area of 0.503 square meters (m^2) at a spray height of 18 inches (43 centimeters (cm)) above the average plant canopy. Control plants were sprayed in the same manner with the solvent blank. All herbicide (component a) application rates are given as “g ae/ha” and all safener (component b) application rates are given as “g ai/ha.”
(§5) The treated plants and control plants were placed in a greenhouse as described above and watered by sub-irrigation to prevent wash-off of the test compounds. After 20-22 d, the condition of the test plants as compared with that of the control plants was determined visually and scored on a scale of 0 to 100 percent where 0 corresponds to no injury and 100 corresponds to complete kill.

Russian thistle (SASKR) = format: in vivo, Salsola kali
Text: as §1, §2, §3, §4, §5

spring barley (HORVS) = format: in vivo, Hordeum vulgare
Text: as §1, §2, §3, §4, §5

wild chamomile (MATCH) = format: in vivo, Matricaria chamomilla
Text: as §1, §2, §3, §4, §5

winter rape (BRSNW) = format: in vivo, Brassica napus
Text: as §1, §2, §3, §4, §5

Johnson grass (SORHA) = format: in vivo, Sorghum halepense
Text: as §1, §2, §3, §4, §5

Canada horseweed (ERICA) = format: in vivo, Erigeron canadensis
Text: as §1, §2, §3, §4, §5

[1] = tested on: ivyleaf morningglory (IPOHE); format: in vivo, Ipomoea hederacea
Text: as §1, §2, §3, §4, §5

large crabgrass (DIGSA) = format: in vivo, Digitaria sanguinalis
Text: as §1, §2, §3, §4, §5

winter wheat (TRZAW) = format: in vivo, Triticum aestivum
Text: as §1, §2, §3, §4, §5

common rice (ORYSA) = format: in vivo, Oryza sativa
Text: as §1, §2, §3, §4, §5

maize (ZEAMX) = format: in vivo, Zea mays
Text: as §1, §2, §3, §4, §5

nutsedge (CYPES) = format: in vivo, Cyperus esculentus
Text: as §1, §2, §3, §4, §5

giant foxtail (SETFA) = format: in vivo, Setaria faberi
Text: as §1, §2, §3, §4, §5

[2] = tested on: common lambsquarters (CHEAL); format: in vivo, Chenopodium album L.
Text: as §1, §2, §3, §4, §5

wild pansy (VIOTR) = format: in vivo, Viola tricolor
Text: as §1, §2, §3, §4, §5

wild buckwheat (POLCO) = format: in vivo, Polygonum convolvulus
Text: as §1, §2, §3, §4, §5

barnyardgrass (ECHCG) = format: in vivo, Echinochloa crus-galli
Text: as §1, §2, §3, §4, §5

Canada thistle (CIRAR) = format: in vivo, Cirsium arvense
Text: as §1, §2, §3, §4, §5

common sunflower (HELAN) = format: in vivo, Helianthus annuus
Text: as §1, §2, §3, §4, §5

soybean (GLXMA) = format: in vivo, Glycine max
Text: as §1, §2, §3, §4, §5

wild oat (AVEFA) = format: in vivo, Avena fatua
Text: as §1, §2, §3, §4, §5

Italian ryegrass (LOLMU) = format: in vivo, Lolium multiflorum
Text: as §1, §2, §3, §4, §5

[3] = tested on: Chinese sprangletop (LEFCH); format: in vivo, Leptochloa chinensis
Text: as §1, §2, §3, §4, §5

blackgrass (ALOMY) = format: in vivo, Alopecurus myosuroides
Text: as §1, §2, §3, §4, §5

kochia (KCHSC) = format: in vivo, Kochia scoparia
Text: as §1, §2, §3, §4, §5

[4] = tested on: herbicide-resistant kochia (KCHSC-R); format: in vivo, Kochia scoparia
Text: as §1, §2, §3, §4, §5

pigweed (AMARE) = format: in vivo, Amaranthus retroflexus
Text: as §1, §2, §3, §4, §5

velvetleaf (ABUTH) = format: in vivo, Abutilon theophrasti
Text: as §1, §2, §3, §4, §5

Measured: % visual injury Ob

CCOC(=O)c1nc(C(Cl)(Cl)Cl)n(-c2ccc(Cl)cc2Cl)n1 [Fenchlorazole-ethyl, fenchlorazole-ethyl]
0%: spring wheat (TRZAS); 10 g/ha | spring wheat (TRZAS); 20 g/ha | spring wheat (TRZAS); 40 g/ha | Russian thistle (SASKR); 10 g/ha | Russian thistle (SASKR); 20 g/ha | Russian thistle (SASKR); 40 g/ha | spring barley (HORVS); 10 g/ha | spring barley (HORVS); 20 g/ha | spring barley (HORVS); 40 g/ha | wild chamomile (MATCH); 10 g/ha | wild chamomile (MATCH); 20 g/ha | wild chamomile (MATCH); 40 g/ha | winter rape (BRSNW); 10 g/ha | winter rape (BRSNW); 20 g/ha | winter rape (BRSNW); 40 g/ha

O=C(O)c1nc(C(Cl)(Cl)Cl)n(-c2ccc(Cl)cc2Cl)n1 [Fenchlorazole, fenchlorazole]
0%: Johnson grass (SORHA); 20 g/ha | Johnson grass (SORHA); 40 g/ha | Johnson grass (SORHA); 80 g/ha | Canada horseweed (ERICA); 20 g/ha | Canada horseweed (ERICA); 40 g/ha | Canada horseweed (ERICA); 80 g/ha | [1]; 20 g/ha | [1]; 40 g/ha | [1]; 80 g/ha | large crabgrass (DIGSA); 20 g/ha | large crabgrass (DIGSA); 40 g/ha | large crabgrass (DIGSA); 80 g/ha | winter wheat (TRZAW); 20 g/ha | winter wheat (TRZAW); 40 g/ha | winter wheat (TRZAW); 80 g/ha | common rice (ORYSA); 20 g/ha | common rice (ORYSA); 40 g/ha | common rice (ORYSA); 80 g/ha | maize (ZEAMX); 20 g/ha | maize (ZEAMX); 40 g/ha | maize (ZEAMX); 80 g/ha | nutsedge (CYPES); 20 g/ha | nutsedge (CYPES); 40 g/ha | nutsedge (CYPES); 80 g/ha | giant foxtail (SETFA); 20 g/ha | giant foxtail (SETFA); 40 g/ha | giant foxtail (SETFA); 80 g/ha | [2]; 20 g/ha | [2]; 40 g/ha | [2]; 80 g/ha | wild pansy (VIOTR); 20 g/ha | wild pansy (VIOTR); 40 g/ha | wild pansy (VIOTR); 80 g/ha | wild buckwheat (POLCO); 20 g/ha | wild buckwheat (POLCO); 40 g/ha | wild buckwheat (POLCO); 80 g/ha | barnyardgrass (ECHCG); 20 g/ha | barnyardgrass (ECHCG); 40 g/ha | barnyardgrass (ECHCG); 80 g/ha | Canada thistle (CIRAR); 20 g/ha | Canada thistle (CIRAR); 40 g/ha | Canada thistle (CIRAR); 80 g/ha | common sunflower (HELAN); 20 g/ha | common sunflower (HELAN); 40 g/ha | common sunflower (HELAN); 80 g/ha | soybean (GLXMA); 20 g/ha | soybean (GLXMA); 40 g/ha | soybean (GLXMA); 80 g/ha | wild oat (AVEFA); 20 g/ha | wild oat (AVEFA); 40 g/ha | wild oat (AVEFA); 80 g/ha | Italian ryegrass (LOLMU); 20 g/ha | Italian ryegrass (LOLMU); 40 g/ha | Italian ryegrass (LOLMU); 80 g/ha | [3]; 20 g/ha | [3]; 40 g/ha | [3]; 80 g/ha | blackgrass (ALOMY); 20 g/ha | blackgrass (ALOMY); 40 g/ha | blackgrass (ALOMY); 80 g/ha | kochia (KCHSC); 20 g/ha | kochia (KCHSC); 40 g/ha | kochia (KCHSC); 80 g/ha | [4]; 20 g/ha | [4]; 40 g/ha | [4]; 80 g/ha | winter rape (BRSNW); 20 g/ha | winter rape (BRSNW); 40 g/ha | winter rape (BRSNW); 80 g/ha | pigweed (AMARE); 20 g/ha | pigweed (AMARE); 40 g/ha | pigweed (AMARE); 80 g/ha | velvetleaf (ABUTH); 20 g/ha | velvetleaf (ABUTH); 40 g/ha | velvetleaf (ABUTH); 80 g/ha
